# Test results: US9655887B2, “Pharmaceutical composition and the use thereof, and application regime of said pharmaceutical composition for on-demand contraception” (BAYER PHARMA AKTIENGESELLSCHAFT, priority 2013, dated 2017)
# Marks after values point to notes of the source that are not given here.
# Legend:
# [1] = test system: fertilizability of ovulated cumulus-oocyte complexes; assay: In-vivo action on post-ovulatory in-vitro fertilization; parameters: species or system mice (strain: B6D2F1); details: 1-10 mg/kg s.c.
# From the text: 4.3 In-Vivo Action on Post-Ovulatory In-Vitro Fertilization:
# Substances can exert an influence on fertility by decreasing the fertilizability of oocytes or cumulus-oocyte complexes. In order to study such effects, substances can be administered in vivo and subjected to in vitro fertilization after ovulation of cumulus-oocyte complexes has taken place. The in-vitro fertilization rate, where no test substance is any longer present, allows conclusions as to the in-vivo effects of the test substances.
# Immature female mice (strain: B6D2F1, Charles River, Suelzfeld, age: 19-25 days) were kept in Macrolon cages in rooms with controlled illumination (12 hrs darkness: 12 hrs light), fed with a standard diet and provided with drinking water ad libitum.
# The mice were primed with PMSG (pregnant mare serum gonadotropin) (10 IU/animal i.p.). After 48 hours, a stimulus triggering ovulation was created in the animals by one administration of 10 IU/animal i.p. (hCG, human chorionic gonadotropin). The test substances were dissolved in benzyl benzoate/castor oil (1+4 v/v) and administered in a volume of 0.1 ml s.c. 1 hour before hCG (n=5 animals per group). Fourteen hours after hCG administration, the animals were killed. […] Twenty-four hours after the incubation with the sperms, the number of fertilized oocytes is established and the percentage fertilization rate determined
# [2] = test system: fertilizability of oocytes or cumulus-oocyte complexes; assay: In-vivo effect on postovulatory in-vitro fertilization in the mouse (2-cell embryos); parameters: species or system mice (strain: B6D2F1); details: vehicle 36.3 ± 9.5
# From the text: 7. In-Vivo Effect on Postovulatory In-Vitro Fertilization in the Mouse
# Substances can influence fertility by lowering fertilizability of oocytes or cumulus-oocyte complexes. To examine such effects, substances can be administered in vivo and, after ovulation of cumulus-oocyte complexes, the latter are subjected to in-vitro fertilization. The in-vitro fertilization rate in the absence of test substance allows conclusions to be drawn on the in-vivo effects of the test substances.
# Immature female mice (strain: B6D2F1, Charles River, Suelzfeld, age: 19-25 days) were kept in Makrolon cages in rooms with controlled lighting (12 hours of darkness: 12 hours of light), fed with a standard diet and provided with water ad libitum.
# The mice were primed with PMSG (Pregnant Mare Serum Gonadotropin) (10 IU/animal i.p.). After 48 hours, by administration of 10 IU/animal i.p., an ovulation-triggering stimulus (hCG, human Chorion Gonadotropin) was generated in the animals. EP2 receptor antagonists were dissolved in benzyl benzoate/castor oil (1+4 v/v) and administered in a volume of 0.1 ml s.c. 1 hour prior to hCG (n=5 animals per group). The COX inhibitor was suspended in a carrier liquid (85 mg of Myrj®53 polyoxyl(50)stearate; CAS No. 9004-99-3) in 100 ml of 0.9% w/v NaCl solution), and the appropriate dose was administered in a volume of 2 ml/kg of body weight orally 1 hour prior to hCG. Fourteen hours after administration of hCG, the animals were sacrificed. Ovulated oocytes and cumulus-oocyte complexes were obtained from the ovarii bursa and/or the oviduct and subjected to in-vitro fertilization, with a sperm number of 40 000 sperms/0.5 ml for 1 hour being used for fertilization. Twenty-four hours after incubation with the sperms, the number of fertilized oocytes and the number of 2-cell embryos per animal were determined.
# [3] = target: EP2 subtype of the human PGE2 receptor (hEP2 receptor) (Homo sapiens, UniProt P43116); assay: cAMP antagonism test, human prostaglandin E2 (subtype EP2) receptor signal; format: cell-based
# Procedure, shortened: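 Cells (625000 cells/ml, mixed with cAMP-d2) were preincubated 20 min at RT with compound ([…]). They were then stimulated 60 min at RT with a 3× PGE2 solution (1.5 nM) in PBS-IBMX and lysed for 20 min. cAMP was read by HTRF as the 665/620 nm ratio ×10000, with antagonism seen as a rise in FRET signal.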
# [4] = test system: fertility of the female rat; assay: Single administration of EP2 receptor antagonists and COX inhibitors alone or in combination, fertility of the rat (implantation sites); format: in vivo, female Han Wistar rats; details: Piroxicam 2 mg/animal
# Procedure: 6. Effect of a Single Administration of EP2 Receptor Antagonists and COX Inhibitors Alone or in Combination on the Fertility of the Rat
# In the experiments below, female Han Wistar rats having a weight of 200-270 g were used. The animals were kept in Makrolon cages in rooms with controlled lighting (12 hours of darkness; 12 hours of light), fed with a standard diet and provided with water ad libitum.
# EP2 receptor antagonists were dissolved in benzyl benzoate/castor oil (1+4 v/v), and the dose was administered in a volume of 1 ml/kg of body weight s.c. Optionally, EP2 receptor antagonists were also administered orally in the same vehicle as the COX inhibitors (see below). […]
# The COX inhibitors were suspended in a carrier liquid (85 mg of Myrj®53 polyoxyl(50)stearate; CAS No. 9004-99-3) in 100 ml of 0.9% w/v NaCl solution), and the dose corresponding to the treatment group was administered in a volume of 2 ml/kg of body weight.
# Prior to the start of the experiment, two cycles were observed using vaginal swabs. Only animals having a regular 4-day cycle were used in the experiment. The animals were randomized to the treatment groups.
# The animals were treated once in the proestrus, the day in the cycle when the LH peak occurs in the evening, with the test substances either alone or in combination. On the evening of the proestrus, the female animals mated with a male rat. Successive mating was confirmed by detection of vaginal sperms in the vaginal swab the next morning. The effect on fertility was determined 9-15 days after mating by the number of implantation sites of the animals. […]
# [5] = single administration in proestrus, 7:00
# [6] = single administration in proestrus, 13:00
# [7] = single administration in proestrus, 18:00, data of n = 5 animals
# EP2 subtype of the human PGE2 receptor (hEP2 receptor), sequence (P43116 whole entry): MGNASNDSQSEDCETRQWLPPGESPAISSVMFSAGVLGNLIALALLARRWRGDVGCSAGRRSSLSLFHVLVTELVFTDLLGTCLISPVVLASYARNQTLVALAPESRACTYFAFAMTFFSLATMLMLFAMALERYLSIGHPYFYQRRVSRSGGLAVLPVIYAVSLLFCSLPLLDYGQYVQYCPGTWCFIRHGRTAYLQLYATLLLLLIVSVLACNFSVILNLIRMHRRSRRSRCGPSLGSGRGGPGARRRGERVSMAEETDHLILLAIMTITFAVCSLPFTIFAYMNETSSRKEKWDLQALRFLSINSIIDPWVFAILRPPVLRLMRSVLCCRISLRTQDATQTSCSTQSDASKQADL
smiles,measurement,setting,value
"COCCNC(=O)c1ccc2nn(CC3CCN(C(=O)c4ccc(Oc5ccc(C(F)(F)F)cc5)cc4)CC3)cc2c1C [Example 17, N-(2-methoxyethyl)-4-methyl-2-[(1-{4-[4-(trifluoromethyl)phenoxy]benzoyl}piperidin-4-yl)methyl]-2H-indazole-5-carboxamide]",influence on the fertilizability of ovulated cumulus-oocyte complexes,[1],dose-dependent influence on the fertilizability of ovulated cumulus-oocyte complexes
"Cc1c(C(=O)NCC(F)(F)F)ccc2nn(CC3CCN(C(=O)c4ccc(Oc5ccc(C(F)(F)F)cc5)cc4)CC3)cc12 [Example E126, 4-methyl-N-(2,2,2-trifluoroethyl)-2-[(1-{4-[4-(trifluoromethyl)phenoxy]benzoyl}piperidin-4-yl)methyl]-2H-indazole-5-carboxamide]",2-Cell embryos per animal (mean ± SD),[2]; E126 0.1 mg/animal s.c. 1 hour prior to hCG,30.8 ± 7.3
same,2-Cell embryos per animal (mean ± SD),[2]; E126 0.5 mg/animal s.c. 1 hour prior to hCG,12.6 ± 3.6
same,IC50,[3],> 50 nM
"CN1C(C(=O)Nc2ccccn2)=C(O)c2ccccc2S1(=O)=O [Piroxicam, piroxicam, reference compound]",2-Cell embryos per animal (mean ± SD),[2]; Piroxicam 0.1 mg/animal orally 1 hour prior to hCG,10.8 ± 3.8
same,Absolute implantations number of 6 animals,"[4]; Table 6.3, proestrus, 12:30",71
same,Implantations per animal (mean ± SD),"[4]; Table 6.3, proestrus, 12:30",11.8 ± 3.7
same,Absolute implantations number of 6 animals,[4]; [5],81
same,Implantations per animal (mean ± SD),[4]; [5],13.5 ± 1.0
same,Absolute implantations number of 6 animals,[4]; [6],68
same,Implantations per animal (mean ± SD),[4]; [6],11.3 ± 1.6
same,Absolute implantations number of 6 animals,[4]; [7],53*
same,Implantations per animal (mean ± SD),[4]; [7],10.6 ± 1.5
